The source of these data is PMC10272271, “MAM-2201 acute administration impairs motor, sensorimotor, prepulse inhibition, and memory functions in mice: a comparison with its analogue AM-2201” (Psychopharmacology, 2023).

SMILES strings stand for the structures.

The target of assay [1] is T1, human CB1 receptors (Homo sapiens, UniProt P21554).
T1 construct: host or cells: CHO cells
The assay is described as follows: [3H]-CP-55,940 competition binding, hCB1 CHO membranes. The following applies: for selectivity index (ratio Ki CB2 / Ki CB1): human CB receptors. Here is the method:
CHO cells transfected with human CB1 or CB2 receptors (Perkin Elmer Life and Analytical Sciences, USA) were grown adherently and maintained in Ham’s F12 containing 10% fetal bovine serum, penicillin (100 U/ml), streptomycin (100 µg/ml), and Geneticin (G418, 0.4 mg/ml) at 37 °C in 5% CO2/95% air. To obtain membranes, cells were washed with PBS and scraped off with ice-cold hypotonic buffer (5 mM Tris HCl, 2 mM EDTA, pH 7.4). The cell suspension was homogenized with a Polytron and then centrifuged for 30 min at 40,000 × g. The membrane pellet was suspended in 50 mM Tris HCl buffer (pH 7.4) containing 2.5 mM EDTA, 5 mM MgCl2, 0.5% BSA for CB1 receptors or in 50 mM Tris HCl (pH 7.4), 1 mM EDTA, 5 mM MgCl2, 0.5% BSA for CB2 receptors (Vincenzi et al. [2013]).
(§1) Competition binding experiments were carried out incubating 0.5 nM [^3H]-CP-55,940 (Perkin Elmer Life and Analytical Sciences, USA) and different concentrations of the tested compounds for 90 or 60 min at 30 °C for CB1 or CB2 receptors, respectively. For human cannabinoid receptors, membranes obtained from CHO cells transfected with human CB1 or CB2 receptors (2 µg protein/100 µl) were used. Competition binding experiments at murine cannabinoid receptors were performed with mouse brain membranes (40 µg protein/100 µl) or with mouse spleen membranes (80 µg protein/100 µl) for CB1 receptors or CB2 receptors, respectively. Non-specific binding was determined in the presence of 1 mM WIN 55,212–2 (Vincenzi et al. [2013]). Bound and free radioactivity were separated by filtering the assay mixture through Whatman GF/C glass fiber filters using a Brandel cell harvester (Brandel Instruments, Unterföhring, Germany). The filter-bound radioactivity was counted using a Packard Tri Carb 2810 TR scintillation counter (Perkin Elmer Life and Analytical Sciences, USA).
(§2) The protein concentration was determined according to a Bio-Rad method (500–0006; Bio-Rad Laboratories, Hercules, CA, USA) with bovine serum albumin as a reference standard. Inhibitory binding constants, Ki, were calculated from the IC50 values according to the Cheng and Prusoff equation: Ki = IC50/(1 + [C*]/KD*), where [C*] is the concentration of the radioligand and KD* its dissociation constant. Functional experiments were analyzed by non-linear regression analysis using the equation for a sigmoid concentration–response curve (GraphPad Prism, USA). All the data are expressed as the mean ± SEM of three independent experiments.

The target of assay [2] is T2, murine CB1 receptors (Mus musculus, UniProt P47746).
T2 construct: membranes from mouse brain and spleen were used, respectively; from tissue
As to the kind of experiment: [3H]-CP-55,940 competition binding, mouse brain (cortex) membranes. To be noted: for selectivity index (ratio Ki CB2 / Ki CB1): murine CB receptors. The protocol: To evaluate the affinity of synthetic cannabinoids for murine CB1 and CB2 receptors, membranes from mouse brain and spleen were used, respectively. Following excision from mice, tissues were suspended in 50 mM Tris HCl, pH 7.4 at 4 °C. The mouse brain and spleen tissues were homogenized with a Polytron and subsequently centrifuged for 10 min at 2000 × g. The resulting supernatants were filtered, centrifuged for 20 min at 40,000 × g and the pellets were used for competition binding experiments (Vincenzi et al. [2013]).
as §1, §2

The target in assay [3] is T3, human CB2 receptors (Homo sapiens, UniProt P34972).
T3 construct: host or cells: CHO cells
The assay is described as follows: Cyclic AMP assay, hCB2 CHO cells. To be noted: for agonist behaviour (inhibition of forskolin-stimulated cAMP production): CHO cells, human CB2. The class given is cell-based. Here is the method:
CHO cells transfected with human CB1 or CB2 receptors were washed with PBS, detached with trypsin, and centrifuged for 10 min at 200 × g. The pellet containing 1 × 10^6 cells/assay was suspended in 0.5 ml of buffer containing150 mM NaCl, 2.7 mM KCl, 0.37 mM NaH2PO4, 1 mM MgSO4, 1 mM CaCl2, 5 mM HEPES, 10 mM MgCl2, and 5 mM glucose, at pH 7.4 and 37 °C. Cells were pre-incubated with 0.5 mM of the phosphodiesterase inhibitor 4-(3-butoxy-4-methoxybenzyl)-2-imidazolidinone (Ro 20–1724;) for 10 min in a shaking bath at 37 °C. The potency of the examined compounds to inhibit adenylate cyclase activity was determined in the presence of forskolin 1-µM stimulation. The reaction was terminated by the addition of cold 6% trichloroacetic acid (TCA) and the final aqueous solution was tested for cyclic AMP levels by a competition protein binding assay (AlphaScreen cAMP Detection Kit, Cat. Number 6760635D, Perkin Elmer Life and Analytical Sciences, USA) following the manufacturer’s instructions; Vincenzi et al. [2013]).
as §2

T3 sequence (P34972 whole entry): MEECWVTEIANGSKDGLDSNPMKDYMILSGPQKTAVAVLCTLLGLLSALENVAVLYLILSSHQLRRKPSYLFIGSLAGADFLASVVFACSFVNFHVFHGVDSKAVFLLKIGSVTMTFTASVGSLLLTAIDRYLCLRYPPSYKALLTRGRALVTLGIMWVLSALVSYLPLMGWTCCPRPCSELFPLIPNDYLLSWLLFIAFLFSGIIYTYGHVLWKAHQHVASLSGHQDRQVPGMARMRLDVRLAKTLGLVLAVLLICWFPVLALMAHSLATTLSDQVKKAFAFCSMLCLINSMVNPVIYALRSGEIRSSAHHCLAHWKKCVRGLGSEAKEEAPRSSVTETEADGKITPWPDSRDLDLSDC
T1 sequence (P21554 whole entry): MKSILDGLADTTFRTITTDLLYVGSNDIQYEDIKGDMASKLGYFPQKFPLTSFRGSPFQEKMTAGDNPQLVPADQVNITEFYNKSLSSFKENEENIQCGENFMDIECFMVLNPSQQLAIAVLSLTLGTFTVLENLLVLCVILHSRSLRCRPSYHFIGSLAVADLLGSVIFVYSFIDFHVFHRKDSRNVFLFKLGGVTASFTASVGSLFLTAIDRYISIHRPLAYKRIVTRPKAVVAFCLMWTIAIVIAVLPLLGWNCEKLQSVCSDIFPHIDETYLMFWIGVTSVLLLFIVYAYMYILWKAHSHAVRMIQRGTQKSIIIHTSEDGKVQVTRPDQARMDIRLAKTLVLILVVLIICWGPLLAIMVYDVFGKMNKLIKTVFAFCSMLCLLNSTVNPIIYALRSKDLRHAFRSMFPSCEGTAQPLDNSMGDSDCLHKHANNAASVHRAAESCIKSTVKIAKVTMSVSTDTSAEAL
T2 sequence (P47746 whole entry): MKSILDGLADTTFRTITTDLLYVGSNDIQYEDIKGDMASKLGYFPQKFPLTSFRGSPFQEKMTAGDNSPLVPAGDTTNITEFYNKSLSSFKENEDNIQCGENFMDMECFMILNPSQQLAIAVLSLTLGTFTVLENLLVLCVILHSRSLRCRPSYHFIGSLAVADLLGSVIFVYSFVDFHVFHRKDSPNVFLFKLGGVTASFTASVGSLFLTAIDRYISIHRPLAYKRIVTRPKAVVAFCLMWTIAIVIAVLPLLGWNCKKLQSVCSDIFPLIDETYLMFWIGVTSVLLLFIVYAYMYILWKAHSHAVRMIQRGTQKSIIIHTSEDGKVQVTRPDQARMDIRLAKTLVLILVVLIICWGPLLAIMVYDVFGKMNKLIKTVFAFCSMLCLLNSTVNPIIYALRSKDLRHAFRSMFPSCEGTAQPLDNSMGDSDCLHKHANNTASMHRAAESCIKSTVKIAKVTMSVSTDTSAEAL

Turning to `O=C(c1cccc2ccccc12)c1cn(CCCCCF)c2ccccc12` [AM-2201, 1-[(5-Fluoropentyl)-1H-indol-3-yl](1-naphthylenyl) methanone], in assay [1], the Ki stood at 1.66 ± 0.13 nM and the “selectivity index (ratio Ki CB2 / Ki CB1)” value turned out to be 9.9. In assay [2], affinity was put at a Ki of 1.96 ± 0.13 nM and the “selectivity index (ratio Ki CB2 / Ki CB1)” value was 7.4. In addition, in assay [3], half-maximal inhibition (IC50) required 31.8 ± 2.9 nM and the “agonist behaviour (inhibition of forskolin-stimulated cAMP production)” value is recorded as “full agonists”.

On to `Cc1ccc(C(=O)c2cn(CCCCCF)c3ccccc23)c2ccccc12` [MAM-2201, 1-[(5-fluoropentyl)-1H-indol-3-yl](4-methyl-1-naphthalenyl) methanone], for which, in assay [1], the inhibition constant Ki came to 1.11 ± 0.12 nM and the “selectivity index (ratio Ki CB2 / Ki CB1)” value is on record as 9.3. Also, in assay [2], the inhibition constant Ki came out at 1.07 ± 0.23 nM and the “selectivity index (ratio Ki CB2 / Ki CB1)” value came out at 9.0. Also, in assay [3], the concentration for half-maximal inhibition (IC50) stood at 22.4 ± 3.8 nM and the “agonist behaviour (inhibition of forskolin-stimulated cAMP production)” value was “full agonists”.
